# Earlier results in patent US20030232858A1, “Use of hydroxyeicosatetraenoic acid compounds to treat dry mouth” (priority 2002, published 2003).
# Assays:
# [1] = system: psoriatic skin lesions
# [2] = system: colitis
# [3] = system: leukotriene B4
smiles,measurement,setting,value
"CCCCC[C@H](O)/C=C/C=C\C/C=C\C/C=C\CCCC(=O)O [15-HETE, 15-Hydroxyeicosatetraenoic acid]",effect on psoriasis,[1]; injected into psoriatic skin lesions,can improve psoriasis
same,concentration required to cause a clinical effect,"[1]; intralesional injection, 0.1 ml",10 µmol/L
same,amount required to cause a clinical effect,"[1]; intralesional injection, 0.1 ml of 10 μmol/L",300 ng
same,anti-inflammatory properties in colitis,[2],minor anti-inflammatory properties
same,effects on leukotriene B4 production or its activity,[3],inhibitory effects
